Experiments:
MDR1, BCRP = test: MDCKII-MDR1-BCRP efflux assay; assay type: in vitro ADME; details: dog, pH 7.4, 5 μM compound, HBSS pH 7.4, read-out: MDCK-Mdr1-BCRP efflux ratio
Description: The apical-to-basolateral (A-B) and basolateral-to-apical (B-A) transport of compound in HBSS (25 mM HEPES, pH 7.4) was measured across MDCKII-MDR1-BCRP cell monolayers. Incubations were performed at approximately 37° C. for 120 min, with functionality of the test system being confirmed using 5 μM digoxin as a positive control substrate. Transport of 5 μM compound and control compound were determined by quantifying substrate concentration in the incubation medium of donor compartment at the beginning of the incubation period, and both donor and receiver compartments at the end of the incubation period. The data was used to calculate the apparent permeability (Papp). All incubations were performed in triplicate and integrity of the cell monolayers was confirmed using the marker Lucifer yellow.
The permeability coefficient Pexact (cm/s) was calculated using the equation: […]
The Pexact ratio was calculated using the equation: […]
The efflux ratio was calculated using the equation: […]
Where dCr/dt is the cumulative concentration of compound in the receiver chamber as a function of time (μM/s); Vr is the solution volume in the receiver chamber (0.1 mL on the apical side, 0.3 mL on the basolateral side); A is the surface area for the transport, i.e. 0.11 cm2 for the area of the monolayer; CO is the initial concentration in the donor chamber (μM).

[1] = molecular target: Full length human DNAPK protein (Homo sapiens, UniProt P78527); test: DNA-PK enzymatic assay (TR-FRET); assay type: biochemical; details: 10 μM ATP, 1.6 μM peptide substrate
[2] = Metabolic stability assay (human microsomal Clint); assay type: in vitro ADME; details: 1 mg/mL microsomes, 1 mM NADPH, 37° C.; for microsomal CLint at 1 μM: human, pooled human liver microsomes, pH 7.4, 1 μM compound; for Human liver microsomal CLint: 1 μM compound
Description: 1 μM compound was incubated with 1 mg/mL of microsomes (Pooled HLM with 20 mg/ml protein cone) at 37° C. in 250 μL of buffer (100 mM phosphate buffer, pH-7.4) containing 1 mM NADPH solution. 20 μL of incubation mix was quenched with 5 volumes chilled acetonitrile at different time points 0, 0.5, 5, 10, 15, 20 and 30 min in a fresh 96 well plate. The quench plate was centrifuged at 4000 rpm for 15 min. 40 μL of supernatant was diluted to 200 μL with pure water and analyzed using LC-MS/MS.
In vitro intrinsic clearance of the drugs in the microsome CLint (μl/min/mg) was calculated in the similar manner as the CLint in the hepatocyte.

Rat hepatocyte = test: Metabolic stability assay (rat hepatocyte Clint); assay type: in vitro ADME; details: 1 μM compound, cryopreserved hepatocytes 1 million cells per mL
Description: Viability of cryopreserved hepatocytes was determined using trypan blue and the cell conc. was adjusted to […] with buffer. 1 μM compound (in Acetonitrile; 0.01% DMSO) was incubated with 250 μL of hepatocytecells (1 million cells per mL) in a 96 deep well plate. Reaction was stopped at different time points (0, 0.5, 5, 15, 30, 45, 60, 80, 100 and 120 min) by addition of 3 volumes of chilled acetonitrile to 20 μL of reaction mixture and centrifuged at 4° C. for 15 min. 40 μL of supernatant was diluted to 200 μL with pure water and analyzed using LC-MS/MS.
In vitro hepatocyte clearance was estimated based on determination of elimination half-life (T1/2) of compounds disappearance from their initial concentrations. Peak area ratios of each compound (test or control) to IS was calculated. Drug elimination rate constant k (min−1), T1/2 (min), and in vitro intrinsic clearance CLint (μL/min/E6) was calculated according to the following equations: […]
Where Chep (cells×μL^−1) is the cell concentration in the incubation system.

Row | SMILES | efflux ratio at 120 min, 5 μM (MDR1, BCRP) | IC50 [1] | microsomal CLint at 1 μM [2] | Rat hepatocyte CLint (μl/min/10^−6 cells) (Rat hepatocyte) | Human liver microsomal CLint [2]
1 | COC(C)Cn1nc(C)c2cnc(Nc3cn4ncnc4cc3C)nc21 (racemic) [Example 69, 1-(2-methoxypropyl)-3-methyl-N-(7-methyl-[1,2,4]triazolo[1,5-a]pyridin-6-yl)-1H-pyrazolo[3,4-d]pyrimidin-6-amine] | 3 | 8.8 nM | 13.6 µL/min/mg | 6.3 μl/min/10^−6 cells | 
2 | Cc1cc2ncnn2cc1Nc1ncc2c(C)nn(C3CCCOC3)c2n1 (single isomer, unassigned) [Example 29, 3-methyl-N-(7-methyl-[1,2,4]triazolo[1,5-a]pyridin-6-yl)-1-(tetrahydro-2H-pyran-3-yl)-1H-pyrazolo[3,4-d]pyrimidin-6-amine] | 1.6 | 2 nM | 24.5 µL/min/mg | 13.3 μl/min/10^−6 cells | 
3 | Cc1cc2ncnn2cc1Nc1ncc2c(n1)c(C1CCOCC1C)nn2C (single isomer, unassigned) [Example 55, 1-methyl-N-(7-methyl-[1,2,4]triazolo[1,5-a]pyridin-6-yl)-3-(3-methyltetrahydro-2H-pyran-4-yl)-1H-pyrazolo[4,3-d]pyrimidin-5-amine] |  | 2.5 nM |  |  | 
4 | Cc1cc2ncnn2cc1Nc1ncc2c(n1)c(C1CCOCC1C)nn2C (single isomer, unassigned) [Example 56, 1-methyl-N-(7-methyl-[1,2,4]triazolo[1,5-a]pyridin-6-yl)-3-(3-methyltetrahydro-2H-pyran-4-yl)-1H-pyrazolo[4,3-d]pyrimidin-5-amine] |  | 1.1 nM |  |  | 
5 | CCC(C)n1nc(C)c2cnc(Nc3cn4ncnc4cc3C)nc21 (single isomer, unassigned) [Example 61, 1-(sec-butyl)-3-methyl-N-(7-methyl-[1,2,4]triazolo[1,5-a]pyridin-6-yl)-1H-pyrazolo[3,4-d]pyrimidin-6-amine] |  | 3.5 nM | 34.5 µL/min/mg | 5.2 μl/min/10^−6 cells | 
6 | CCC(C)n1nc(C)c2cnc(Nc3cn4ncnc4cc3C)nc21 (single isomer, unassigned) [Example 62, 1-(sec-butyl)-3-methyl-N-(7-methyl-[1,2,4]triazolo[1,5-a]pyridin-6-yl)-1H-pyrazolo[3,4-d]pyrimidin-6-amine] |  | 5.1 nM |  | 11.7 μl/min/10^−6 cells | 42.4 µL/min/mg
7 | COCCC(C)n1nc(C)c2cnc(Nc3cn4ncnc4cc3C)nc21 (single isomer, unassigned) [Example 67, 1-(4-methoxybutan-2-yl)-3-methyl-N-(7-methyl-[1,2,4]triazolo[1,5-a]pyridin-6-yl)-1H-pyrazolo[3,4-d]pyrimidin-6-amine] |  | 27 nM | 104 µL/min/mg | 8.3 μl/min/10^−6 cells | 
8 | COCCC(C)n1nc(C)c2cnc(Nc3cn4ncnc4cc3C)nc21 (single isomer, unassigned) [Example 68, 1-(4-methoxybutan-2-yl)-3-methyl-N-(7-methyl-[1,2,4]triazolo[1,5-a]pyridin-6-yl)-1H-pyrazolo[3,4-d]pyrimidin-6-amine] |  | 65.3 nM |  | 37.0 μl/min/10^−6 cells | 201.9 µL/min/mg
9 | COC(C)Cn1nc(C)c2cnc(Nc3cn4ncnc4cc3C)nc21 (single isomer, unassigned) [Example 70, 1-(2-methoxypropyl)-3-methyl-N-(7-methyl-[1,2,4]triazolo[1,5-a]pyridin-6-yl)-1H-pyrazolo[3,4-d]pyrimidin-6-amine] |  | 4.3 nM |  |  | 
10 | COC(C)Cn1nc(C)c2cnc(Nc3cn4ncnc4cc3C)nc21 (single isomer, unassigned) [Example 71, 1-(2-methoxypropyl)-3-methyl-N-(7-methyl-[1,2,4]triazolo[1,5-a]pyridin-6-yl)-1H-pyrazolo[3,4-d]pyrimidin-6-amine] |  | 6.4 nM |  |  | 
11 | Cc1cc2nccn2cc1Nc1ncc2c(C)nn(C3CCC(F)(F)CC3)c2n1 [Example 22, 1-(4,4-difluorocyclohexyl)-3-methyl-N-(7-methylimidazo[1,2-a]pyridin-6-yl)-1H-pyrazolo[3,4-d]pyrimidin-6-amine] |  | 1.3 nM | 115 µL/min/mg | 40.9 μl/min/10^−6 cells | 
12 | Cc1cc2ncnn2cc1Nc1ncc2c(C)nn([C@H]3CC[C@@H](F)CC3)c2n1 [Example 27, 1-((1s,4s)-4-fluorocyclohexyl)-3-methyl-N-(7-methyl-[1,2,4]triazolo[1,5-a]pyridin-6-yl)-1H-pyrazolo[3,4-d]pyrimidin-6-amine] |  | 1 nM | 41.4 µL/min/mg | 10.8 μl/min/10^−6 cells | 
13 | Cc1cc2ncnn2cc1Nc1ncc2c(C)nn([C@H]3CC[C@H](F)CC3)c2n1 [Example 28, 1-((1r,4r)-4-fluorocyclohexyl)-3-methyl-N-(7-methyl-[1,2,4]triazolo[1,5-a]pyridin-6-yl)-1H-pyrazolo[3,4-d]pyrimidin-6-amine] |  | 1.3 nM | 70 µL/min/mg | 14.1 μl/min/10^−6 cells | 
14 | Cc1cc2ncnn2cc1Nc1ncc2c(C)nn(C3CC4(CCC4)C3)c2n1 [Example 43, 3-methyl-N-(7-methyl-[1,2,4]triazolo[1,5-a]pyridin-6-yl)-1-(spiro[3.3]heptan-2-yl)-1H-pyrazolo[3,4-d]pyrimidin-6-amine] |  | 1.5 nM | 173 µL/min/mg | 16.9 μl/min/10^−6 cells | 
15 | Cc1cc2ncnn2cc1Nc1ncc2c(C)nn(C3CCC3)c2n1 [Example 45, 1-cyclobutyl-3-methyl-N-(7-methyl-[1,2,4]triazolo[1,5-a]pyridin-6-yl)-1H-pyrazolo[3,4-d]pyrimidin-6-amine] |  | 4.3 nM | 70 µL/min/mg | 64.0 μl/min/10^−6 cells | 
16 | Cc1cc2ncnn2cc1Nc1ncc2c(C)nn(CC3CCC3)c2n1 [Example 46, 1-(cyclobutylmethyl)-3-methyl-N-(7-methyl-[1,2,4]triazolo[1,5-a]pyridin-6-yl)-1H-pyrazolo[3,4-d]pyrimidin-6-amine] |  | 3.3 nM | 105 µL/min/mg | 60.9 μl/min/10^−6 cells | 
17 | Cc1cc2ncnn2cc1Nc1ncc2c(C)nn(C3CCCC3)c2n1 [Example 47, 1-cyclopentyl-3-methyl-N-(7-methyl-[1,2,4]triazolo[1,5-a]pyridin-6-yl)-1H-pyrazolo[3,4-d]pyrimidin-6-amine] |  | 1.7 nM | 89.7 µL/min/mg | 43.3 μl/min/10^−6 cells | 
18 | COC1CC2(C1)CC(n1nc(C)c3cnc(Nc4cn5ncnc5cc4C)nc31)C2 (centres unmarked) [Example 54, 1-(6-methoxyspiro[3.3]heptan-2-yl)-3-methyl-N-(7-methyl-[1,2,4]triazolo[1,5-a]pyridin-6-yl)-1H-pyrazolo[3,4-d]pyrimidin-6-amine] |  | 1.5 nM |  |  | 
19 | Cc1cc2ncnn2cc1Nc1ncc2c(C)nn(CCOC(F)(F)F)c2n1 [Example 64, 3-methyl-N-(7-methyl-[1,2,4]triazolo[1,5-a]pyridin-6-yl)-1-(2-(trifluoromethoxy)ethyl)-1H-pyrazolo[3,4-d]pyrimidin-6-amine] |  | 3.6 nM | 50.8 µL/min/mg | 38.6 μl/min/10^−6 cells | 
20 | Cc1cc2nccn2cc1Nc1ncc2c(C)nn(-c3ccc(C#N)cc3)c2n1 [Example 73, 4-(3-methyl-6-((7-methylimidazo[1,2-a]pyridin-6-yl)amino)-1H-pyrazolo[3,4-d]pyrimidin-1-yl)benzonitrile] |  | 1.3 nM |  |  | 

Source: patent US12630565B2, “DNA-dependent protein kinase inhibitor” (DIZAL (JIANGSU) PHARMACEUTICAL CO., LTD., priority 2019, dated 2026)
